According to patent publication US20250213451A1, “AN ORAL CARE COMPOSITION COMPRISING A GLYCOLIPID AND A MILD SURFACTANT” (priority 2021, published 2025):

System: oral tissue cells based on EpiOral Tissue Model
Assay: Oral irritation evaluation, EpiOral Tissue Model
Type: cell-based
Description: The oral irritation evaluation was conducted to test the surfactant mildness and oral irritation. The test sample solution was prepared in aqueous solution with 1% active content at pH of 7. The test sample solutions were applied to the oral tissue cells based on EpiOral Tissue Model provided by Mattek Corp. The viability of the cells over time was measured and used to calculate the time of exposure until viability is reduced to 50%, which is indicated by ET-50.

Row | Compound | Oral Irritation Classification (aqueous solution with 1% active content at pH of 7, class from ET-50) | ET-50 based on EpiOral Model (aqueous solution with 1% active content at pH of 7, time of exposure until viability is reduced to 50%) [min] | ET-50 based on EpiOral Model (pH 7) [min] | Oral Irritation Classification (pH 7)
1 | CCCCCCCCCCCCOS(=O)(=O)[O-].[Na+] [Texapon ® OC-N, Sodium Lauryl Sulfate] | Moderately irritation | 116.7 |  | 
2 | Cocamidopropyl Betaine [Dehyton ® PK 45] |  |  | 181.0 | Mildly irritation
3 | PEG-12 [Pluracare ® E-600] |  |  |  | None to minimal irritation
